5 compounds from US8088733B2 (Tranzyme Pharma Inc., priority 2006, dated 2012) can be followed below.

One assay relates to fasted Wistar rats. Description: Gastric emptying of a phenol red-labelled methylcellulose meal in fasted naive rats (model for gastroparesis). It is filed as in vivo, rat. The settings on record: for increase in gastric emptying relative to the vehicle control group: 15 min after meal; for potency in gastric emptying compared to metoclopramide, based on the different dose levels: dose-dependent, FIG. 2. The procedure: To examine the effects of compounds of the invention in a model for gastroparesis, compounds were evaluated for possible effects on gastric emptying in fasted rats as described below.
GHRP-6 and test samples were dissolved in vehicle of 9% HPBCD/0.9% NaCl. Immediately following oral administration of methylcellulose (2%) containing phenol red (0.05%) (2 mL/rat), test substances or vehicle (9% HPBCD/0.9% NaCl) were each administered intravenously (i.v.) at a dosing volume of 5 mL/kg.
Test substances were each administered intravenously to a group of 5 O/N-fasted Wistar derived male rats weighing 200±20 g immediately after methylcellulose (2%) containing phenol red (0.05%) was administered orally at 2 mL/animal. The animals were then sacrificed 15 minutes later. The stomach was immediately removed, homogenized in 0.1 N NaOH (5 mL) and centrifuged. Following protein precipitation by 20% trichloroacetic acid (0.5 mL) and re-alkalization of the supernatant with 0.1 N NaOH, total phenol red remaining in the stomach was determined by a colorimetric method at 560 nm. A 30 percent or more (≧30%) increase in gastric emptying, detected as the decrease in phenol red concentration in the stomach relative to the vehicle control group, is considered significant.
• 1. To ascertain data for representative compounds 25 and 298 as prokinetic agents with potent effects on gastric emptying, a model for gastroparesis. Methods • 1. Overnight-fasted rats (male, Wistar, ˜200 g, N=5/group) were given a meal of methylcellulose (2%) by intragastric gavage. The meal was labeled with phenol red (0.05%). • 2. […] Animals were sacrificed 15 minutes later; the stomach was immediately removed and homogenized in 0.1 N NaOH and centrifuged. • 4. Total phenol red remaining in the stomach was quantified by a colorimetric method at 560 nm. • 5. A >30% increase in gastric emptying, detected based on the phenol red concentration in comparison to the control group, is considered significant. Results

For the next assay, the system named is rats dosed with morphine. Kind of assay: Rat model of opioid-induced bowel dysfunction (morphine-delayed gastric emptying and small intestinal transit). The class given is in vivo. The conditions noted are these: morphine 3 mg/kg s.c. The text has this:
Opioid analgesics, such as morphine, are well known to delay gastrointestinal transit, which is a noted side effect for this class of drugs. (Greenwood-van Meerveld, B.; Gardner, C. J.; Little, P. J.; Hicks, G. A.; DeHaven-Hudkins, D. L. Preclinical studies of opioids and opioid antagonists on gastrointestinal function. Neurogastroenterol. Motil. 2004, 16, 46-53.) The clinical term for this syndrome is opioid-induced bowel dysfunction (OBD). The aim of this study was to determine whether test compounds can effectively reverse morphine-induced delayed gastric emptying and small intestinal transit in a rat model of opioid-induced bowel dysfunction.
• 1. Rats (male, Sprague-Dawley, 250-300 g, N=6-7/gp) were implanted with jugular vein catheters to accommodate dosing of test articles. • 2. Overnight-fasted rats were administered morphine by sub-cutaneous injection (3 mg/kg). • 3. After 60 minutes, rats were dosed (i.v. bolus) with vehicle, test compound (0.30, 1.0 mg/kg) or GHRP-6 (0.02 mg/kg) followed by intragastric gavage of ^99mTc methylcellulose (2%) meal. • 4. After 15 minutes, the rats were euthanized and the stomach and consecutive 10 cm segments of the intestine are isolated. Radioactivity (^99mTc) in each tissue isolate is measured as a means of measuring gastric emptying and small intestinal transit. • 5. One-way ANOVA, Dunnet's post-hoc statistical test was applied. • 6.
• 1. […] Methods • 1. Rats (male, Sprague-Dawley, 250-300 g) were implanted with jugular vein catheters to accommodate dosing of test articles. • 2. Overnight-fasted rats were administered morphine (3 mg/kg s.c.). • 3. […] After 15 min, the rats were euthanized and the stomach and consecutive 10 cm segments of the intestine are isolated. Radioactivity (^99mTc) in each tissue isolate was measured as a means of measuring the transit of the meal. • 5. Results

Assay [1] concerns POI rats concurrently dosed with morphine. Description: Combination rat model of post-operative ileus and opioid-induced bowel dysfunction. The class given is in vivo.
Setting [2] is: GHRP-6 0.02 mg/kg i.v., mean ± sem.

For the compound `CCN(CC)CCNC(=O)c1cc(Cl)c(N)cc1OC` [metoclopramide, reference compound], the “increase in gastric emptying relative to the vehicle control group” value with fasted Wistar rats (10 mg/kg i.v.) was determined as 41%.

On to `CN1CC[C@]23c4c5ccc(O)c4O[C@H]2[C@@H](O)C=C[C@H]3[C@H]1C5` [morphine], for which the “gastric emptying and small intestinal transit” value in the assay on rats dosed with morphine (preliminary study) is reported as “significantly delayed”.

With `CCC(C)[C@@H]1NCCOc2ccccc2CCCNC(=O)[C@@H](Cc2ccc(Cl)cc2)NC(=O)[C@@H](C)N(C)C1=O` (stereo partly drawn) [Compound 25], the gastric emptying result in the assay on fasted Wistar rats (30 μg/kg) is “significant gastric emptying”. Besides, the “increase in gastric emptying relative to the vehicle control group” value in the assay on fasted Wistar rats (100 μg/kg i.v.) is listed as 39%. In addition, in the assay with fasted Wistar rats, the “potency in gastric emptying compared to metoclopramide, based on the different dose levels” value was approximately 100 fold.

In the case of `C[C@@H]1CN[C@@H](C2CC2)C(=O)N(C)[C@H](C)C(=O)N[C@H](Cc2ccc(F)cc2)C(=O)NCCCc2ccccc2O1` [Compound 298], the “potency in gastric emptying compared to metoclopramide, based on the different dose levels” value with fasted Wistar rats is on record as approximately 100 fold. Further, in assay [1] (0.1, 0.3, 1, 3 mg/kg i.v., FIG. 8), the gastric emptying entry is recorded as “significantly accelerates”. The small intestinal transit entry in assay [1] (0.1, 0.3, 1, 3 mg/kg i.v., FIG. 9) is given as “significantly accelerates”. Moreover, the “lowest dose level effective at restoring GI motility” value in assay [1] (combination of POI and OBD) was 0.1 mg/kg.

Turning to GHRP-6, the “increase in gastric emptying relative to the vehicle control group” value with fasted Wistar rats (20 μg/kg i.v.) is 40%. For the same compound, in the assay on rats dosed with morphine (setting [2]), the “Geometric Center” value amounted to 3.38 ± 0.76 and the “Intragastric Residue (%)” value was determined as 0.48 ± 0.10%.
